Paper PMC2680961, “Homologous desensitization of signalling by the alpha (α) isoform of the human thromboxane A2 receptor: A specific role for nitric oxide signalling” (Biochimica et Biophysica Acta, 2007)
Where a chain is given by its changes, count along the chain named.

Key:
TPα [1] = molecular target: T1, TPα (Homo sapiens, UniProt P21731); experiment: Intracellular calcium mobilization, HEK.TPα cells; assay type: cell-based; settings: for Δ[Ca2+]i, U46619-induced: HEK.TPα
T1 construct: expressed in transfected cells
T1 sequence (P21731 1-343): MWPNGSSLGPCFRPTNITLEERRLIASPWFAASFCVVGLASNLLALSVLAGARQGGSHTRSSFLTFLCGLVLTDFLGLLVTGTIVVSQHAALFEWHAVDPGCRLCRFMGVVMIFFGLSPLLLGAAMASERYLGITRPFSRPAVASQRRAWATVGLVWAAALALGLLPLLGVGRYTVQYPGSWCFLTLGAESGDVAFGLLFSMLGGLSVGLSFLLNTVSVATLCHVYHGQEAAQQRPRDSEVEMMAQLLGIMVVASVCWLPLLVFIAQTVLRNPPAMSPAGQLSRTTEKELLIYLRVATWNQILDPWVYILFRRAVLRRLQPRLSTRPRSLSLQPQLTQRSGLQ
Procedure: Measurement of intracellular calcium mobilization ([Ca^2+]i) in FURA2/AM preloaded HEK 293 cell lines (2 × 10^6 cells/dish), each transiently co-transfected with pADVA (10 μg), and pCMV:Gαq (25 μg), was carried out as previously described. To investigate the effect of GRK2/βARK1 on TP-mediated [Ca^2+]i mobilization, HEK.TPα or HEK.TPβ cells (2 × 10^6 cells/dish) were co-transfected with pADVA (10 μg), pCMV:Gαq (25 μg) along with pRK5:βARK1^495–689 (25 μg), encoding a dominant negative form of GRK2/βARK1[39]. Approximately 48 h post-transfection, cells were harvested by scraping, washed twice in ice-cold PBS and resuspended in HBSSHB (modified Ca^2+/Mg^2+-free Hank's buffered salt solution, containing […], pH 7.67, 0.1% bovine serum albumin (BSA)) buffer at 10^7 cells/ml and incubated in the dark with 5 μM FURA2/AM for 45 min at 37 °C. Cells were collected by centrifugation (900×g, 5 min), washed once in an equal volume of HBSSHB, and were finally resuspended in HBSSHB buffer at 10^7 cells/ml and kept at room temperature in the dark for 40 min. For each measurement of [Ca^2+]i mobilization, aliquots of cells were diluted to 0.825 × 10^6 cells/ml in HBSSHB, 1 mM CaCl2 and FURA2 fluorescence was recorded (2 ml aliquots of cells) at 37^ °C with gentle stirring with a Perkin Elmer-Cetus LS50-B spectrofluorometer at excitation wavelengths of 340 nm and 380 nm and emission wavelength of 510 nm, respectively.
[…] To assess agonist-mediated homologous desensitization, cells (0.825 × 10^6 cells/ml; 2 ml per assay) were stimulated with 1 μM U46619 (Primary stimulation) or, as a control, with the vehicle for 4 min; thereafter, cells were collected by centrifugation (900×g, 5 min); were washed twice in 2 ml HBSSHB, 1 mM CaCl2; and finally resuspended in 2 ml HBSSHB,1 mM CaCl2 and were left to recover over various time intervals (ranging from 0 to 60 min); thereafter, cells re-stimulated with 1 μM U46619 (Secondary stimulation) and changes in [Ca^2+]i mobilization were monitored as a function of time. To assess the role of protein kinase (PK) A, PKC or PKG on U46619-mediated desensitization of TPα signalling, cells were pre-incubated with the PKA inhibitor H-89 (10 μM), the PKC inhibitor GF 109203X (50 nM) or the PKG inhibitor KT 5823 (50 nM), for 15 min and respective kinase inhibitors were maintained throughout the primary/secondary U46619-stimulations and during the washes.
The vehicle had no effect on U46619-mediated [Ca^2+]i mobilization. Calibration of the signal was performed in each sample by adding 0.2% Triton X-100 to obtain the maximal fluorescence ratio (Rmax) and then 1 mM EGTA to obtain the minimal fluorescence ratio (Rmin). The ratio of the fluorescence at 340 nm to that at 380 nm is a measure of [Ca^2+]i, which assumes a Kd of 225 nM Ca^2+ for FURA2/AM. The results presented in the figures are representative data from at least three or four independent experiments and are plotted as changes in Ca^2+i mobilized (Δ[Ca^2+]i (nM)) as a function of time (s) upon ligand stimulation. Changes in [Ca^2+]i mobilization were determined by measuring peak rises in [Ca^2+]i mobilized (Δ[Ca^2+]i) and were calculated as mean changes in Δ[Ca^2+]i ± S.E.M. (nM).

TPα [2] = molecular target: T1, TPα; experiment: Agonist-mediated TP phosphorylation in whole cells, HEK.TPα; assay type: cell-based
Procedure: (§1) Agonist-mediated TP phosphorylation in whole cells (1.8–2 × 10^6 cells/10 cm dish) was performed essentially as previously described. Briefly, cells were transiently co-transfected with pADVA (10 μg), pCMV:Gαq (25 μg) plus pcDNA:βArrestin2 (25 μg) approximately 48 h prior to labelling. Thereafter, cells were washed once in phosphate-free DMEM, 10% dialysed FBS and were metabolically labelled for 60 min in the same medium (2 ml/10 cm dish) containing 100 μCi/ml [^32P] orthophosphate (8000–9000 Ci/mmol) at 37 °C, 5% CO2. Where appropriate, the PKG kinase inhibitor KT 5823 (50 nM) or its vehicle was added during the labelling period. Thereafter, U46619 (1 μM) or an equivalent volume of vehicle (0.01% ethanol in HBS; 20 μl) were added and cells were incubated for 10 min at 37 °C, 5% CO2. Reactions were terminated by transferring the dishes to ice and aspirating the labelled medium and HA-epitope tagged TP receptors were processed and immunoprecipitated using the anti-HA 101R antibody as previously described. Electroblots were then exposed to Xomat XAR (Kodak) film to detect ^32P-labelled proteins. Thereafter, blots were subject to phosphorimage analysis, and the intensities of agonist-induced phosphorylation were expressed in arbitrary units relative to basal (vehicle-stimulated) levels. In parallel experiments, cells were incubated under identical conditions in the absence of [^32P] orthophosphate; HA-tagged TP receptors were immunoprecipitated from the same cell lines using the anti-HA 101R antibody and immunoblots were screened using the anti-HA 3F10 horseradish peroxidase-conjugated antibody.

TPα^S331A = molecular target: T2, TPα^S331A (Homo sapiens, UniProt P21731, S331A); experiment: Agonist-mediated TP phosphorylation in whole cells, HEK.TPα^S331A; assay type: cell-based
T2 construct: expressed in transfected cells
T2 sequence (P21731 1-343 S331A): T1 sequence (P21731 1-343) with S331A
Procedure: as §1

TPβ = molecular target: T3, TPβ (Homo sapiens, UniProt P21731); experiment: Intracellular calcium mobilization, HEK.TPβ cells; assay type: cell-based
T3 construct: expressed in transfected cells

[3] = parameters: method as in PMID 10508233; settings: rapidly hydrolysed to inactive metabolite TXB2; estimated; cited from earlier work
eNOS = eNOS phosphorylation (anti-phospho eNOS^Ser1177 western blot); assay type: cell-based, human; settings: HEK.TPα cells (also HEK 293, HEK.TPβ); 1 μM U46619 or 10 U/ml Thrombin, 5 min, 37 °C
Procedure: In order to assess eNOS phosphorylation, HEK.TPα, HEK.TPβ or HEK 293 cells (2 × 10^6 cells/10-cm dish) were plated some 48 h prior to experimentation. Cells were incubated with vehicle, 1 μM U46619 or 10 U/ml Thrombin for 5 min at 37 °C and aliquots of whole cell protein (100 μg/lane) were analysed by SDS-PAGE/western blot. Blots were initially screened using the anti-phospho eNOS^1177 as per supplier's instructions (Cell Signalling Technology) and, following stripping, were subsequently re-screened using the anti-eNOS (Transduction Laboratories).

[4] = primary 1 μM U46619 in presence of 50 nM KT 5823
[5] = secondary 1 μM U46619 at 15 min in presence of 50 nM KT 5823
[6] = 1 μM U46619 plus 50 nM KT 5823 pre-incubation

T3 sequence (P21731 1-407 isoform P21731-2): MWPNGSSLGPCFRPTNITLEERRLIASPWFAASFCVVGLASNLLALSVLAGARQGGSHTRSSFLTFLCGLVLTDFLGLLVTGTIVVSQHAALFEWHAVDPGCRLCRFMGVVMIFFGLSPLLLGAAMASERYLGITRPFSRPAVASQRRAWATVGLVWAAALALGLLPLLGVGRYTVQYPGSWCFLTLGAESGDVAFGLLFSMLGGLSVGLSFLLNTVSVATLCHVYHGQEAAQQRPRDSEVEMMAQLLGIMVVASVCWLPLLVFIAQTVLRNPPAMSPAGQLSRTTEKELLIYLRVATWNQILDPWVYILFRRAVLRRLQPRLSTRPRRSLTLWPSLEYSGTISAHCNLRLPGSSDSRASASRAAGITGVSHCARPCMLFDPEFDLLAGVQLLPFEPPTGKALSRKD

Q: Which results are given for `COC(=O)[C@@]1(OC)C[C@H]2O[C@]1(C)n1c3ccccc3c3c4c(c5c6ccccc6n2c5c31)C(=O)N(C)C4` [KT 5823]?
A: Δ[Ca2+]i, U46619-induced (TPα [1]; [4]): 160 ± 7.9 nM; Δ[Ca2+]i, U46619-induced (TPα [1]; [5]): 60 ± 7 nM; secondary U46619 [Ca2+]i response relative to primary response (TPα [1]; TPα, in presence of KT 5823 (50 nM)): approximately 38%; U46619-mediated TPα phosphorylation relative to basal (vehicle) (TPα [2]; [6]): 2 fold; reduction of agonist-induced TPα phosphorylation (TPα [2]; pre-incubation with KT 5823, 1 μM U46619): 2.5 fold; U46619-mediated TPα^S331A phosphorylation relative to basal (vehicle) (TPα^S331A; [6]): 1.5 fold; effect on agonist-induced phosphorylation of TPα^S331A (TPα^S331A; preincubation with KT 5823): not significantly affected; effect of inhibitor on U46619-induced [Ca2+]i mobilization by TPβ (TPβ; inhibitor pre-incubated 15 min, primary/secondary U46619 stimulation): no significant effect; Δ[Ca2+]i, U46619-induced (TPβ; [4]): 170 ± 25 nM; Δ[Ca2+]i, U46619-induced (TPβ; [5]): 0 nM

Q: For `CCCCC[C@H](O)/C=C/[C@H]1O[C@H]2C[C@H](O2)[C@@H]1C/C=C\CCCC(=O)O` [TXA2], which half-life [3] is on record?
A: 30 s

Q: Which “eNOS phosphorylation at Ser^1177” value (eNOS) does the source give for thrombin here?
A: readily lead to eNOS phosphorylation
